Measured values published in ChEMBL document CHEMBL4622972 (J Med Chem, 2020).

What was measured:
[1] = 1-octanol-aqueous buffer distribution coefficient, log D of the compound at pH 7.4; assay type: physicochemical
[2] = Apparent permeability across apical to basolateral side in human Caco2 cells at pH 7.4; assay type: ADME, cell-based; details: Caco-2, pH 7.4
[3] = Apparent permeability across basolateral to apical side in human Caco2 cells at pH 7.4; assay type: ADME, cell-based; details: Caco-2, pH 7.4
[4] = Volume of distribution at steady state in iv dosed Harlan-Han Wistar rat; assay type: ADME, organism-based; details: in vivo, read-out: Vdss
[5] = Oral bioavailability in Harlan-Han Wistar rat; assay type: ADME, organism-based; details: in vivo
[6] = Volume of distribution at steady state in iv dosed dog; assay type: ADME, organism-based, Canis lupus familiaris; details: in vivo, read-out: Vdss
[7] = Oral bioavailability in dog; assay type: ADME, organism-based, Canis lupus familiaris; details: in vivo
[8] = Drug absorption in po dosed hamster; assay type: ADME, organism-based; details: cricetinae, in vivo
[9] = Drug absorption in po dosed mouse; assay type: ADME, organism-based; details: in vivo
[10] = Drug absorption in po dosed rat; assay type: ADME, organism-based; details: in vivo
[11] = Apparent permeability in human jejunum; assay type: ADME, tissue-based
[12] = Apparent permeability in rat jejunum; assay type: ADME, tissue-based

Row | SMILES | logD [1] | Papp A→B [2] [×10⁻⁶ cm/s] | further results
1 | Cc1ccc2[nH]c(C(=O)N[C@H]3CN(S(=O)(=O)c4ccnnc4)C[C@@H]3C(=O)NCCN(C)C)cc2c1 | 0.7 |  | 
2 | Cc1ccc2[nH]c(C(=O)N[C@H]3CN(S(=O)(=O)c4ccccc4)C[C@@H]3C(=O)NC[C@@H]3CCCN3C)cc2c1 | 2.3 | 0.24 | Papp B→A [3]: 19.3 ×10⁻⁶ cm/s
3 | Cc1ccc2[nH]c(C(=O)N[C@H]3CN(S(=O)(=O)c4ccnc(C)c4)C[C@@H]3C(=O)NCCN(C)C)cc2c1 | 1.7 |  | 
4 | Cc1ccc2[nH]c(C(=O)N[C@H]3CN(S(=O)(=O)c4cnccn4)C[C@@H]3C(=O)NCCN(C)C)cc2c1 | 1 |  | 
5 | Cc1ccc2[nH]c(C(=O)N[C@H]3CCN(S(=O)(=O)N4CCCCC4)C[C@@H]3C(=O)NCCN(C)C)cc2c1 | 2.3 |  | 
6 | Cc1ccc2[nH]c(C(=O)N[C@H]3CN(S(=O)(=O)c4ccccc4)C[C@@H]3C(=O)NCCN(C)C)cc2c1 | 2.1 |  | 
7 | Cc1ccc2[nH]c(C(=O)N[C@H]3CCN(S(=O)(=O)c4ccccc4Cl)C[C@@H]3C(=O)N[C@H]3CCCNC3)cc2c1 | 1.9 | < 0.01 | Papp B→A [3]: 1.4 ×10⁻⁶ cm/s
8 | O=C(N[C@H]1CN(S(=O)(=O)c2ccccc2)C[C@@H]1C(=O)N[C@H]1CCCNC1)c1cc(-c2ccccc2Cl)on1 | 1.9 | 0.31 | Vd [4]: 5.5 L/kg; bioavailability [5]: < 1%; Vd [6]: 6.6 L/kg; bioavailability [7]: 40%; Drug absorption [8]: Not Active; Drug absorption [9]: Not Active; Drug absorption [10]: Not Active; Papp [11]: < 1 ×10⁻⁶ cm/s; Papp [12]: < 1 ×10⁻⁶ cm/s
9 | Cc1ccc2[nH]c(C(=O)N[C@H]3CN(S(=O)(=O)c4ccccc4)C[C@@H]3C(=O)N[C@H]3CCCN(C)C3)cc2c1 | 2.7 | 0.3 | Papp B→A [3]: 16.3 ×10⁻⁶ cm/s
10 | Cc1ccc2[nH]c(C(=O)N[C@H]3Cc4ccccc4[C@@H]3C(=O)NCCN(C)C)cc2c1 | 2.4 |  | 
11 | Cc1ccc2[nH]c(C(=O)N[C@H]3CN(S(=O)(=O)C4CCOCC4)C[C@@H]3C(=O)NCCN(C)C)cc2c1 | 1 |  | 
12 | Cc1ccc2[nH]c(C(=O)N[C@H]3CN(S(=O)(=O)c4ccccc4)C[C@@H]3C(=O)N[C@@H]3CCCN(C)C3)cc2c1 | 2.7 | 0.76 | Papp B→A [3]: 22.8 ×10⁻⁶ cm/s
13 | Cc1ccc2[nH]c(C(=O)N[C@H]3CCN(S(=O)(=O)N(C)C)C[C@@H]3C(=O)NCCN(C)C)cc2c1 | 1.2 |  | 
14 | Cc1ccc2[nH]c(C(=O)N[C@H]3CCN(S(=O)(=O)c4ccccc4Cl)C[C@@H]3C(=O)N[C@H]3CCCN(C)C3)cc2c1 | 3.1 | 0.27 | Papp B→A [3]: 15.9 ×10⁻⁶ cm/s
15 | Cc1ccc2[nH]c(C(=O)N[C@H]3CN(S(=O)(=O)c4cccnc4)C[C@@H]3C(=O)NCCN(C)C)cc2c1 | 1.4 |  | 
16 | Cc1ccc2[nH]c(C(=O)N[C@H]3CN(S(=O)(=O)c4cn(C)nc4C)C[C@@H]3C(=O)NCCN(C)C)cc2c1 | 1.4 |  | 

Row | SMILES | logD [1] | Papp A→B [2] [×10⁻⁶ cm/s] | further results
17 | Cc1ccc2[nH]c(C(=O)N[C@H]3CN(S(=O)(=O)c4ccccc4)C[C@@H]3C(=O)NC[C@H]3CCCN3C)cc2c1 | 2.3 | 0.08 | Papp B→A [3]: 2.7 ×10⁻⁶ cm/s
18 | Cc1ccc2[nH]c(C(=O)N[C@H]3CN(S(=O)(=O)c4ccccc4)C[C@@H]3C(=O)NC[C@H]3CCCN3)cc2c1 | 1 | 0.11 | Papp B→A [3]: 15.9 ×10⁻⁶ cm/s
19 | Cc1csc(C(=O)N[C@H]2CN(S(=O)(=O)c3ccccc3)C[C@@H]2C(=O)N[C@H]2CCCNC2)n1 | 0.1 | 0.18 | 
20 | Cc1ccc2[nH]c(C(=O)N[C@H]3CCN(S(=O)(=O)c4ccccc4)C[C@@H]3C(=O)NCCN(C)C)cc2c1 | 2.2 to 2.3 |  | 
21 | Cc1ccc2[nH]c(C(=O)N[C@H]3CN(S(=O)(=O)c4ccccc4)C[C@@H]3C(=O)N[C@H]3CCCNC3)cc2c1 | 1.3 | 0.04 | Papp B→A [3]: 2 ×10⁻⁶ cm/s
22 | Cc1ccc2[nH]c(C(=O)N[C@@H]3CCN(S(=O)(=O)c4ccccc4)C[C@H]3C(=O)NCCN(C)C)cc2c1 | 2.3 |  | 
23 | Cc1ccc2[nH]c(C(=O)N[C@@H]3CN(S(=O)(=O)c4ccccc4)C[C@H]3C(=O)NCCN(C)C)cc2c1 | 2.1 |  | 
24 | Cc1ccc2[nH]c(C(=O)N[C@H]3CN(S(=O)(=O)c4ccccc4)C[C@@H]3C(=O)N[C@@H]3CCCNC3)cc2c1 | 1.3 | 0.04 | Papp B→A [3]: 1.6 ×10⁻⁶ cm/s
25 | Cc1ccc2[nH]c(C(=O)N[C@H]3CCN(S(=O)(=O)C4CC4)C[C@@H]3C(=O)NCCN(C)C)cc2c1 | 1 |  | 
26 | Cc1ccc2[nH]c(C(=O)N[C@H]3CCN(S(=O)(=O)N4CCOCC4)C[C@@H]3C(=O)NCCN(C)C)cc2c1 (racemic) | 1 |  | 
27 | Cc1ccc2[nH]c(C(=O)N[C@H]3CCN(S(=O)(=O)c4cccnc4)C[C@@H]3C(=O)NCCN(C)C)cc2c1 (racemic) | 1.3 |  | 
28 | Cc1ccc2[nH]c(C(=O)N[C@H]3CCN(C(=O)c4cccnc4)C[C@@H]3C(=O)NCCN(C)C)cc2c1 (racemic) | 0.7 |  | 
29 | Cc1ccc2[nH]c(C(=O)N[C@H]3CN(S(=O)(=O)c4ccccc4)C[C@H]3C(=O)NCCN(C)C)cc2c1 (racemic) | 2.3 |  | 
30 | Cc1ccc2[nH]c(C(=O)N[C@H]3CN(S(=O)(=O)c4ccccc4)CC[C@H]3C(=O)NCCN(C)C)cc2c1 (racemic) | 1.9 |  | 
31 | Cc1ccc2[nH]c(C(=O)N[C@@H]3CCN(S(=O)(=O)c4ccccc4)C[C@@H]3C(=O)NCCN(C)C)cc2c1 (racemic) | 2.1 |  | 
32 | Cc1ccc2[nH]c(C(=O)N[C@H]3CN(S(=O)(=O)c4ccccc4)CC[C@@H]3C(=O)NCCN(C)C)cc2c1 (racemic) | 1.9 |  | 
